Data published in ChEMBL document CHEMBL1255343, “Activities of daptomycin and comparative antimicrobials, singly and in combination, against extracellular and intracellular Staphylococcus aureus and its stable small-colony variant in human monocyte-derived macrophages and in broth” (2008).
≈ marks a conversion by molar mass, not a printed value. Calls of active or inactive are those of the source. No cut-off for these calls is given here.

Key:
Staphylococcus aureus [1] = experiment: Antimicrobial activity against Staphylococcus aureus 2549 small colony variants; type: functional
Staphylococcus aureus [2] = experiment: Antimicrobial activity against Staphylococcus aureus 2548; type: functional
Staphylococcus aureus [3] = experiment: Antimicrobial activity against Staphylococcus aureus 2547 small colony variants; type: functional
Staphylococcus aureus [4] = experiment: Antimicrobial activity against extracellular Staphylococcus aureus 2549 small colony variants after 4 hrs in MH-II broth; type: functional, organism-based
Staphylococcus aureus [5] = experiment: Antimicrobial activity against intracellular Staphylococcus aureus 2548 infected in human monocyte-derived macrophages after 48 hrs; type: functional, organism-based
Staphylococcus aureus [6] = experiment: Antimicrobial activity against Staphylococcus aureus 2546; type: functional
Staphylococcus aureus [7] = experiment: Antimicrobial activity against extracellular Staphylococcus aureus 2548 after 4 hrs in MH-II broth; type: functional, organism-based
Staphylococcus aureus [8] = experiment: Antimicrobial activity against extracellular Staphylococcus aureus 2546 after 4 hrs in MH-II broth; type: functional, organism-based

Compound	MIC (Staphylococcus aureus [1]) [µg/mL]	MIC (Staphylococcus aureus [2]) [µg/mL]	MIC (Staphylococcus aureus [3]) [µg/mL]	Activity (Staphylococcus aureus [4])	Activity (Staphylococcus aureus [5])	MIC (Staphylococcus aureus [6]) [µg/mL]	Activity (Staphylococcus aureus [7])	Activity (Staphylococcus aureus [8])
CCCCCCCCCC(=O)N[C@@H](Cc1c[nH]c2ccccc12)C(=O)N[C@H](CC(N)=O)C(=O)N[C@@H](CC(=O)O)C(=O)N[C@@H]1C(=O)NCC(=O)N[C@@H](CCCN)C(=O)N[C@@H](CC(=O)O)C(=O)N[C@H](C)C(=O)N[C@@H](CC(=O)O)C(=O)NCC(=O)N[C@H](CO)C(=O)N[C@@H]([C@H](C)CC(=O)O)C(=O)N[C@@H](CC(=O)c2ccccc2N)C(=O)O[C@@H]1C	0.5 (≈ 0.309 µM)	1 (≈ 0.617 µM)	1 (≈ 0.617 µM)	Active	Active	1 (≈ 0.617 µM)	Active	Active
CCC[C@@H]1C[C@@H](C(=O)N[C@@H]([C@H]2O[C@H](SC)[C@H](O)[C@@H](O)[C@H]2O)[C@H](C)Cl)N(C)C1 [CLINDAMYCIN]	0.25 (≈ 0.588 µM)	0.06 (≈ 0.141 µM)	0.25 (≈ 0.588 µM)			0.125 (≈ 0.294 µM)		
Cc1onc(-c2ccccc2)c1C(=O)N[C@@H]1C(=O)N2[C@@H]1SC(C)(C)[C@@H]2C(=O)O [OXACILLIN]	0.5 (≈ 1.25 µM)	0.25 (≈ 0.623 µM)	0.5 (≈ 1.25 µM)			0.25 (≈ 0.623 µM)		
CO[C@H]1/C=C/O[C@@]2(C)Oc3c(C)c(O)c4c(O)c(c(/C=N/N5CCN(C)CC5)c(O)c4c3C2=O)NC(=O)/C(C)=C\C=C\[C@H](C)[C@H](O)[C@@H](C)[C@@H](O)[C@@H](C)[C@H](OC(C)=O)[C@@H]1C [RIFAMPIN]	0.06 (≈ 0.0729 µM)	0.125 (≈ 0.152 µM)	0.06 (≈ 0.0729 µM)		Active	0.125 (≈ 0.152 µM)		
GENTAMICIN	16	8	4	Active	Active	2	Active	Active
